The values that follow come from paper PMC11133429, “Regiodivergent biosynthesis of bridged bicyclononanes” (Nature Communications, 2024).

Broadly, the Km is the concentration of substrate that gives half-maximal velocity.

In one test the test system is T1, HsCPTb.
T1 construct: cDNA in pESC-URA (GAL1), S. cerevisiae INVSc1 microsomal fraction; no tag mentioned
Description: HPLC prenyltransferase assay, yeast microsomes. It is filed as biochemical, Hypericum sampsonii. The following applies: optimum conditions, Mg2+, pH optimum 10.

Another test relates to T2, HsCPTa.
T2 construct: cDNA in pESC-URA (GAL1), S. cerevisiae INVSc1 microsomal fraction; no tag mentioned
In words: HPLC prenyltransferase assay, yeast microsomes. The test is classed as biochemical, Hypericum sampsonii. The conditions noted are these: optimum conditions, Mg2+, pH optimum 7.

Turning to `CC(C)=CCOP(=O)(O)OP(=O)(O)O` [DMAPP], the Km in the test on HsCPTb (prenyl donor, acceptor grandone (only one accepted)) is 298 ± 29.5 µM; in the test on HsCPTa (prenyl donor, acceptor not given) it was 65.4 ± 6.63 µM.
For `CC(C)=CCC1=C(O)C(CC=C(C)C)(CC=C(C)C)C(=O)C(C(=O)C(C)C)=C1O` [colupulone], in the test with HsCPTa (DMAPP saturation), the Km was determined as 106 ± 9.86 µM.
On to `CC(C)=CCC/C(C)=C/C[C@]1(CC=C(C)C)C(=O)C(CC=C(C)C)=C(O)/C(=C(\O)c2ccccc2)C1=O` [compound 2, kolanone], for which the Km in the test with HsCPTa (DMAPP saturation) was determined as 114 ± 20 µM.
As for `CC(C)=CCC1=C(O)C(CC=C(C)C)(CC=C(C)C)C(=O)C(C(=O)c2ccccc2)=C1O` [compound 1, grandone], the Km with HsCPTb (DMAPP saturation) is 40.4 ± 5.06 µM; with HsCPTa (DMAPP saturation), 62 ± 10.1 µM.
